Literature values, collected in US20220378704A1, “PROCESS FOR THE PREPARATION OF A NANOPARTICULATE ACTIVE INGREDIENT” (Bayer Aktiengesellschaft, priority 2019, published 2022).

How the values were obtained:
[1] = within 5 min

specific surface area (before / after LASP process in the MCR): 0.66 m^2/g
mean particle size (before LASP process): 55 μm
dissolution rate [1]: 35%
SMILES: C#C[C@]1(O)CC[C@H]2[C@@H]3CCC4=Cc5oncc5C[C@]4(C)[C@H]3CC[C@@]21C [raw danazol particles, danazol]
